Measured values taken from PMC6996867 (Journal of Medicinal Chemistry, 2010).

Tests used:
[1] = pKa; type: physicochemical
[2] = tested on: P. berghei strain GFP ANKA; assay: In vivo antimalarial activity, P. berghei infected malaria mouse model; parameters: species or system Plasmodium berghei (female NMRI mice)
[3] = In vivo pharmacokinetic studies in mice

Compound: C[C@H]1Cc2c([nH]c3ccc(F)cc23)[C@@]2(N1)C(=O)Nc1ccc(Cl)cc12 [Compound 17a, (1R,3S)-5′-Chloro-6-fluoro-3-methyl-2,3,4,9-tetrahydrospiro[β-carboline-1,3′-indol]-2′(1′H)-one]
- pKa ([1]; pKa1, first pKa): 4.8

Compound: C[C@H]1Cc2c([nH]c3cc(F)c(F)cc23)[C@@]2(N1)C(=O)Nc1ccc(Cl)cc12 [Compound 20a, (1R,3S)-5′-Chloro-6,7-difluoro-3-methyl-2,3,4,9-tetrahydrospiro[β-carboline-1,3′-indol]-2′(1′H)-one]
- full cure (no parasites at day 30) ([2]; 3 × 30 mg/kg oral doses): four out of five mice
- toxicity or behavioral changes after drug administration ([2]; treated mice, any dosing regimen): neither toxicity nor behavioral changes
- total systemic clearance relative to hepatic blood flow ([3]; mice, intravenous administration): ~10 % hepatic blood flow
- exposure (AUC∞) greater than 9a ([3]; mice, oral, 20a vs 9a): 18 fold
- half-life ([3]; mouse, plasma): 3 h
- pKa ([1]; pKa1, first pKa): 4.9

Compound: C[C@H]1Cc2c([nH]c3cc(Cl)ccc23)[C@@]2(N1)C(=O)Nc1ccc(Cl)cc12 [Compound 18a, (1R,3S)-5′,7-Dichloro-3-methyl-2,3,4,9-tetrahydrospiro[β-carboline-1,3′-indol]-2′(1′H)-one]
- pKa ([1]; pKa1, first pKa): 5.2
- pKa ([1]; pKa2, second pKa): 10.6

Compound: C[C@H]1CCc2c([nH]c3ccccc23)[C@@]2(N1)C(=O)Nc1ccc(Br)cc12 [Compound 1a, (1R,3S)-5′-Bromo-3-methyl-3,4,5,10-tetrahydro-2H-spiro[azepino[3,4-b]indole-1,3′-indol]-2′(1′H)-one]
- pKa ([1]; pKa1, first pKa): 5.2
